We go through ten compounds from US20260109707A1, “HETEROBIFUNCTIONAL COMPOUNDS AND METHODS OF TREATING DISEASE” (Halda Therapeutics OpCo. Inc., priority 2022, published 2026).

Usually GI50 stands for the concentration giving 50% growth inhibition.

For experiment [1], the system named is T-Rex 293 cell line SC3 cells lacking increased expression of androgen receptor protein. Briefly: Cellular growth inhibition assay, T-Rex 293 SC3 cells without doxycycline (CellTiter-Glo, 72 hours). To be noted: 72 h, T-Rex 293 cell line SC3 cells not exposed to doxycycline (lacking increased androgen receptor expression). The class given is cell-based. Summed up: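 Growth inhibition is measured in an inducible AR-expressing T-Rex 293 clone, SC3, cultured with or without 10 ng/mL doxycycline in hormone-depleted medium. Test compounds are applied for 72 hours. GI50 values derive from CellTiter-Glo 2.0 signal fitted by four-parameter regression.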
In general terms: In ATP-based viability assays light output follows the ATP content of the culture.

The subject of a further experiment is VCaP cells. Briefly: Cellular growth inhibition assay for VCaP cells (CellTiter-Glo, 72 hours). The class given is cell-based, human. As to conditions: Homo sapiens, VCaP, 72 h. A digest of the protocol: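 Luminescent viability signal after 72 h of compound exposure gave GI50 values by four-parameter nonlinear regression. Compounds were added in 0.5% DMSO to cells plated 24 h earlier at 5000/well in DMEM containing 10% FBS.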

Consider `Cc1sc2c(c1C)C(c1ccc(Cl)cc1)=N[C@@H](CC(=O)NCCOC1CCN(c3ccc(C(=O)N[C@H]4CC[C@H](Oc5ccc(C#N)c(Cl)c5)CC4)nn3)CC1)c1nnc(C)n1-2` [I-1, N-[4-(3-chloro-4-cyano-phenoxy)cyclohexyl]-6-[4-[2-[[2-[(9S)-7-(4-chlorophenyl)-4,5,13-trimethyl-3-thia-1,8,11,12-tetrazatricyclo[8.3.0.0^2,6]trideca-2(6),4,7,10,12-pentaen-9-yl]acetyl]amino]ethoxy]-1-piperidyl]pyridazine-3-carboxamide], for which the concentration for 50% growth inhibition (GI50) in experiment [1] was 500 to 1500 nM; in the experiment with VCaP cells, below 500 nM.
Taken in the same sequence, the figures for `Cc1sc2c(c1C)C(c1ccc(Cl)cc1)=N[C@@H](CC(=O)NCCOCCOCCOC1CCN(c3ccc(C(=O)N[C@H]4CC[C@H](Oc5ccc(C#N)c(Cl)c5)CC4)nn3)CC1)c1nnc(C)n1-2` [I-2, N-[4-(3-chloro-4-cyano-phenoxy)cyclohexyl]-6-[4-[2-[2-[2-[[2-[(9S)-7-(4-chlorophenyl)-4,5,13-trimethyl-3-thia-1,8,11,12-tetrazatricyclo[8.3.0.0^2,6]trideca-2(6),4,7,10,12-pentaen-9-yl]acetyl]amino]ethoxy]ethoxy]ethoxy]-1-piperidyl]pyridazine-3-carboxamide] were 500 to 1500 nM and below 500 nM.
Taken in the same sequence, the figures for `CCNC(=O)C[C@@H]1N=C(c2ccc(OCCOC3CCN(c4ccc(C(=O)N[C@H]5CC[C@H](Oc6ccc(C#N)c(Cl)c6)CC5)nn4)CC3)cc2)c2c(sc(C)c2C)-n2c(C)nnc21` [I-8] were below 500 nM and below 500 nM.
Taken in the same sequence, the figures for `CCNC(=O)C[C@@H]1N=C(c2ccc(OCCOCCOC3CCN(c4ccc(C(=O)N[C@H]5CC[C@H](Oc6ccc(C#N)c(Cl)c6)CC5)nn4)CC3)cc2)c2c(sc(C)c2C)-n2c(C)nnc21` [I-10] were 500 to 1500 nM and below 500 nM.
In the case of `CCNC(=O)C[C@@H]1N=C(c2ccc(CCCOC3CCN(c4ccc(C(=O)N[C@H]5CC[C@H](Oc6ccc(C#N)c(Cl)c6)CC5)nn4)CC3)cc2)c2c(sc(C)c2C)-n2c(C)nnc21` [I-17], the GI50 (in experiment [1]; in the experiment with VCaP cells) was below 500 nM each time.
For `CCNC(=O)C[C@@H]1N=C(c2ccc(CC3CCN(c4ccc(C(=O)N[C@H]5CC[C@H](Oc6ccc(C#N)c(Cl)c6)CC5)nn4)CC3)cc2)c2c(sc(C)c2C)-n2c(C)nnc21` [I-20], the concentration for 50% growth inhibition (GI50) (in experiment [1]; in the experiment with VCaP cells) was below 500 nM each time.
For `CCNC(=O)C[C@@H]1N=C(c2ccc(N3CC4(C3)CN(c3ccc(C(=O)N[C@H]5CC[C@H](Oc6ccc(C#N)c(Cl)c6)CC5)nn3)C4)cc2)c2c(sc(C)c2C)-n2c(C)nnc21` [I-24], the GI50 was 500 to 1500 nM in experiment [1] and below 500 nM in the experiment on VCaP cells.
On the same counts, the results for `CCNC(=O)C[C@@H]1N=C(c2ccc(OCC3CN(c4ccc(C(=O)N[C@H]5CC[C@H](Oc6ccc(C#N)c(Cl)c6)CC5)nn4)C3)cc2)c2c(sc(C)c2C)-n2c(C)nnc21` [I-29] are 500 to 1500 nM and below 500 nM.
For `CCNC(=O)C[C@@H]1N=C(c2ccc(N3CCC(OC4CCN(c5ccc(C(=O)N[C@H]6CC[C@H](Oc7ccc(C#N)c(Cl)c7)CC6)nn5)CC4)CC3)cc2)c2c(sc(C)c2C)-n2c(C)nnc21` [I-44], the GI50 was 500 to 1500 nM in experiment [1] and below 500 nM in the experiment with VCaP cells.
Taken in the same sequence, the figures for `CCNC(=O)C[C@@H]1N=C(c2ccc(OCCCN(C)c3ccc(C(=O)N[C@H]4CC[C@H](Oc5ccc(C#N)c(Cl)c5)CC4)nn3)cc2)c2c(sc(C)c2C)-n2c(C)nnc21` [I-48] were 500 to 1500 nM and below 500 nM.
